Measurements: patent US11116725B2, “Nanoparticles carrying antibiotics” (UNIVERSITY OF SOUTH FLORIDA, priority 2017, dated 2021)
In brackets after ≈: the same amount, converted by molar mass.

Legend:
[1] = test system: Staphylococcus aureus (ATCC 25923); test: 96-well plate broth assay, minimum inhibitory concentration (MIC); assay type: cell-based; settings: ATCC25923, triplicate, 37° C., 16-20 hours, concentration as N-acryloylciprofloxacin, read-out: MIC vs S. aureus (ATCC 25923)
Method: (§1) Each assay was done in triplicate.
(§2) The original stock emulsion was diluted using the Trypticase Soy Broth solution to an initial concentration of 1.28 mg/ml of the N-acryloylciprofloxacin, then serial diluted with TSB to half the concentration each time. A volume of 10 μl of each emulsion dilution was added to a well in series, resulting in a final concentration run of 64 μg/ml to 0.012 μg/ml. The MIC was done in triplicates for each bacterium, with ciprofloxacin hydrochloride being used as a positive control and a blank of broth medium was used as a negative control.
(§3) Bacteria were grown overnight at 37° C. on an agar plate composed of BBL TSA II Trypticase Soy Agar (TSA) and BBL Trypticase Soy Broth (TSB) in a 1:2 ratio at 4.4% concentration. A broth solution of 2.4% TSB was inoculated using the bacteria from the agar plates, and incubated at 37° C. to reach a 0.5 McFarland standard. The bacteria were then further diluted by a factor of 1000 using a broth solution of 2.4% TSB, and 190 μl of the diluted bacterial solution was transferred by micropipette into each well.

Escherichia coli (K12) = test: as above; assay type: cell-based; settings: triplicate, 37° C., 16-20 hours, concentration as N-acryloylciprofloxacin, read-out: MIC vs E. coli (K12)
Method: as §1, §2, §3

[2] = Solubility in organic solvents; assay type: physicochemical
Method: This method was attempted using methanol, ethanol, ethyl acetate, and dichloromethane. […] However, there was a critical issue that resulted with the polymerization procedure. Typically, organics were stirred at 75° C., then the surfactant and water were added. This would cause the dichloromethane to rapidly evaporate.

SMILES | MIC [1] [µg/mL] | MIC (Escherichia coli (K12)) [µg/mL] | solubility in dichloromethane [2]
O=C(O)c1cn(C2CC2)c2cc(N3CCNCC3)c(F)cc2c1=O [Control Ciprofloxacin, ciprofloxacin] | 0.5 (≈ 1.51 µM) | 0.012 (≈ 0.0362 µM) | 
C=CC(=O)N1CCN(c2cc3c(cc2F)c(=O)c(C(=O)O)cn3C2CC2)CC1 [N-acryloylciprofloxacin] |  |  | Up to 500 mg/ml
